Laboratory results reported in ChEMBL document CHEMBL1149501, “Selective COX-2 inhibitors. Part 1: synthesis and biological evaluation of phenylazobenzenesulfonamides” (Bioorg Med Chem Lett, 2006).

Legend:
[1] = molecular target: Prostaglandin G/H synthase 1 (Homo sapiens, UniProt P23219); experiment: Inhibition of COX1 assessed as TBX2 production in human whole blood; format: functional, tissue-based
[2] = molecular target: T1, Prostaglandin G/H synthase 1 (Ovis aries, UniProt P05979)
T1 sequence (P05979 whole entry): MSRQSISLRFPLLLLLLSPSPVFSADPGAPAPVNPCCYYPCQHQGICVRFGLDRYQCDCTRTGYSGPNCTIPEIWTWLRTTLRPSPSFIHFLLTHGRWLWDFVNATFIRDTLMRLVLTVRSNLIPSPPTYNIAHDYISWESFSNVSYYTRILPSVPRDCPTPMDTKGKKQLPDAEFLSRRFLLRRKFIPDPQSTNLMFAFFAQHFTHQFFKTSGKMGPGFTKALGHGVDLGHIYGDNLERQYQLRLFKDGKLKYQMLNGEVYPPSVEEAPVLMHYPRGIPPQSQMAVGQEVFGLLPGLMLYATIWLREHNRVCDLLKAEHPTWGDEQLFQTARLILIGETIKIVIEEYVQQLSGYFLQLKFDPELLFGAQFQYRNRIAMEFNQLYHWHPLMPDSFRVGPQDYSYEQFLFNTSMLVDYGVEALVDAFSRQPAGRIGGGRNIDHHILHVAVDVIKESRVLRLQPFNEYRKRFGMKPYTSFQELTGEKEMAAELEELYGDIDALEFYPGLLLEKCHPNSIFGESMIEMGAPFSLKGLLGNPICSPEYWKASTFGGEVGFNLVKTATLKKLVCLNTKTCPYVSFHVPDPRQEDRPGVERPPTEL

Sequence of Prostaglandin G/H synthase 1 (Homo sapiens, UniProt P23219) (P23219 whole entry): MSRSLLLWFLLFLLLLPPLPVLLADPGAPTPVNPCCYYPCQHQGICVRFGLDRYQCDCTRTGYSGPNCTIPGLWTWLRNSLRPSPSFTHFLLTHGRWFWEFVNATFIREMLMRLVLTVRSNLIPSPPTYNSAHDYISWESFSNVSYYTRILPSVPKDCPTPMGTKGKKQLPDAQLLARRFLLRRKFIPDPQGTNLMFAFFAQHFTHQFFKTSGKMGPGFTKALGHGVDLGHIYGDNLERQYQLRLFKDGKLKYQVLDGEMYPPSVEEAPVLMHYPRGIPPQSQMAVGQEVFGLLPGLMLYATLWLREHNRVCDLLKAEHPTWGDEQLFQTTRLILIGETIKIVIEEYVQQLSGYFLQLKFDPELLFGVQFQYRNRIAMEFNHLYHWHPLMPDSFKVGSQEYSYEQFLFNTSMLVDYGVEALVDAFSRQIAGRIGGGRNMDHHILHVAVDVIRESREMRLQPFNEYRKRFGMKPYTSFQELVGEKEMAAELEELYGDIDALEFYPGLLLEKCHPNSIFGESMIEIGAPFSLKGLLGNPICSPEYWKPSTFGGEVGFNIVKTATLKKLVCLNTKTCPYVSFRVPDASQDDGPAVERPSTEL

SMILES | IC50 [1] [µM] | IC50 [2] [µM]
CSc1cc(N)ccc1/N=N/c1ccc(S(N)(=O)=O)cc1 | 23.3 | 34.1
NS(=O)(=O)c1ccc(/N=N/c2ccc(OC(=O)Nc3ccccc3)c(OC(=O)Nc3ccccc3)c2)cc1 | 35.1 | –
CC(C)c1ccc(NC(=O)Oc2ccc(/N=N/c3ccc(S(N)(=O)=O)cc3)cc2OC(=O)Nc2ccc(C(C)C)cc2)cc1 | 26.3 | –
NS(=O)(=O)c1ccc(/N=N/c2ccc(O)c(Cl)c2)cc1 | 33.3 | –
CN(C)c1ccc(/N=N/c2ccc(S(N)(=O)=O)cc2)cc1 | > 100 | –
NS(=O)(=O)c1ccc(/N=N/c2ccc(O)cc2)cc1 | > 100 | –
Oc1ccc(/C=C/c2cc(O)cc(O)c2)cc1 [RESVERATROL] | – | 0.38
NS(=O)(=O)c1ccc(/N=N/c2ccc(O)c(C(=O)O)c2)cc1 [SALAZOSULFAMIDE] | 31.6 | 29.3

The next lines start with the values.

IC50 [1] [µM] | IC50 [2] [µM] | SMILES
66.4 | – | COc1ccc(/N=N/c2ccc(S(N)(=O)=O)cc2)cc1O
> 100 | – | COc1ccc(/N=N/c2ccc(S(N)(=O)=O)cc2)cc1
61.7 | > 100 | COc1ccc(/N=N/c2ccc(S(N)(=O)=O)cc2)cc1OC
> 100 | – | COc1cc(/N=N/c2ccc(S(N)(=O)=O)cc2)ccc1O
60 | – | NS(=O)(=O)c1ccc(/N=N/c2ccc(O)c(O)c2)cc1
